# US6777193B1, “Methods for diagnostic and/or treatment of antiphospholipids antibodies-related diseases, and devices” (Escuela Nacional de Ciencias Biologicas, del Instituto …, priority 2000, dated 2004)
# Assays:
# [1] = test system: anti-lipidic particles antibodies from sera of patients with the antiphospholipid syndrome; assay: Hapten inhibition of anti-lipidic particles antibodies from patients' sera (liposomal-ELISA); assay type: binding, human; details: 0.2 μmoles hapten, 30 min at 30° C.
# Method: Costar microtiter plates, with 96 flat-bottom wells with a high lipidic antigens binding property (Costar Co. Cambrige, USA) were coated by the addition to each one of the wells of 100 μl of liposomes made from egg-yolk phosphatidylcholine:phosphatidate (2:1 molar ratio) in Tris-NaCl buffer (10 mM, 1 mM) pH 7, containing 0.1 μmol of phosphatidate, and treated with 5 mM CaCl2 to induce lipidic particles formation.
# Aliquots of 100 μl of patients' sera that were analyzed in Examples 1 and 2B were incubated with 100 μl of 0.2 μmoles of glycerolphosphorylcholine for 30 min at 30° C. Later on, blocked patients sera were added to the wells of the microtiter plate and the liposomal-ELISA method was applied as it was described in Example 1. Peroxidase-conjugated goat anti-Fc of human IgG, IgA and IgM antibodies were used as second antibody.
# BALB/c female mice = assay: Treatment of the pathology induced by H308 monoclonal antibody in mice; assay type: in vivo, mouse
# Method: H308 monoclonal antibody was administered by intraperitoneal injection of 1 μg each week during two months to BALB/c female mice, and simultaneously the glycerolphosphorylcholine hapten was administered at 2.5 mg/Kg, of body weight, doses by intravenous injection each 24 hs, for 2-months.
# Spermidine was administered, as chlorhydrate, in a dose of 1 mg/Kg, of body weight, by intraperitoneal injection each 24 hs, during two months.
# H308 monoclonal antibody = assay: Inhibition of H308 monoclonal antibody by phosphorylated haptens (liposomal-ELISA); assay type: binding, mouse; details: 0.2 μmoles of hapten
# Method: Studies on inhibition of anti-lipidic particles antibodies were carried out using liposomes as antigens and the antigen-antibody reaction was analyzed by the liposomal-ELISA method, which includes the following steps:
# A) A first step of addition and incubation, in which an effective quantity of an antigen suspension is added to each one of the wells of the ELISA microtiter plate. This microtiter plate is selected among those with a high lipidic antigens binding property and said microtiter plate is incubated between 25 to 30° C. for 0.25 to 2 h.
# B) A second step of addition and incubation, in which an effective quantity of a blocking solution is added to each one of the wells of the ELISA microtiter plate with a high lipidic antigens binding property, and said microtiter plate being incubated at a temperature between 25 to 30° C. for 0.25 to 2 h.
# C) A step of elimination of blocking solution, preferably by suction, avoiding that microtiter plate becomes dry when blocking solution is eliminated, because liposomal antigens can be damaged.
# D) A step of inhibition of the antibody porter, in which the antibody porter is incubated with a chemical substance, or hapten, that will inhibit the active site that recognizes the antigen in the antibody porter.
# E) A third step of addition and incubation, in which an effective quantity of the antibody porter inhibited by the hapten was quickly added, to avoid that microtiter plate becomes dry, to each one of the wells using an antibody porter dilution from 1:5 to 1:1000 into blocking solution. This microtiter plate being incubated for 0.25 to 2 h at a temperature between 25 to 30° C.
# F) A first step of washing, in which the microtiter plate is washed with the blocking solution, preferably repeating 4-times and avoiding that microtiter plate becomes dry when eliminating the blocking solution.
# G) A fourth step of addition and incubation, in which an effective quantity of a second antibody is added to each one of the wells of microtiter plate. This plate is incubated in the darkness for 0.25 to 2 h at a temperature between 25 to 30° C. Second antibody is selected preferably among antibodies from a different specie to that of the antibody porter and they can be anti-Fc of human IgG, IgA and IgM or of the animal in study, or antibodies anti-Fc of IgM or of IgG depending on the nature of the monoclonal antibody when this is the antibody porter. Second antibody is used in a final dilution into blocking solution between […] and 1:3500 and it is conjugated to an enzyme preferably to peroxidase.
# H) A second step of washing, in which the microtiter plate is washed with the blocking solution, preferably repeating 4-times and avoiding that microtiter plate becomes dry when eliminating the blocking solution.
# I) A fifth step of addition and incubation, in which an effective quantity of the peroxidase sustrates is added to each one of the wells and this microtiter plate is incubated for 0.1 to 0.5 h at a temperature between .35 and 40° C., stopping the peroxidase reaction by adding an effective quantity of sulfuric acid.
# J) A step of analysis, in which microtiter plate is analyzed using a reading device for ELISA plates, preferably at 492 nm.
# In a specific embodiment, the hapten solution is obtained dissolving hapten in a buffer solution at pH between 7.0 and 7.4, in a relationship from 0.1 to 10 mmoles of hapten per liter of buffer solution.
# Costar microtiter plates, with 96 flat-bottom wells with a high lipidic antigens binding property (Costar Co. Cambrige, USA) were coated by the addition to each one of the wells of 100 μl of liposomes made from egg-yolk phosphatidylcholine:phosphatidate (2:1 molar ratio) in Tris-NaCl buffer (10 mM, 1 mM) pH 7, containing 0.1 μmol of phosphatidate, and treated with 5 mM CaCl2 to induce lipidic particles formation. Microtiter plates were incubated at room temperature for 1 h and they were blocked for 1 h at room temperature in a similar way as was described in Example 1. […]
structure (smiles),measurement,setting,value
C[N+](C)(C)CCOP(=O)([O-])OC[C@H](O)CO [glycerolphosphorylcholine],inhibition in the immunoreaction of patients sera with lipidic particles in liposomes,[1],100%
same,inhibition of the development of mice pathology by H308 monoclonal antibody,"BALB/c female mice; hapten 2.5 mg/Kg intravenous each 24 hs for 2-months, H308 1 μg i.p. each week",40%
same,therapeutically effective quantity,"BALB/c female mice; of body weight, BALB/c female mice given H308",2.5 mg/kg
same,inhibition of H308 monoclonal antibody,H308 monoclonal antibody,100%
